Results from patent publication US11446287B2, “Compounds and methods for EP300 or CBP modulation and indications therefor” (Opna Immuno-Oncology SA, priority 2019, dated 2022).

Target: T1, Recombinant human CBP containing the bromodomain (CBP-BD (1043-1159)) (Homo sapiens, UniProt Q92793)
T1 construct: Recombinant human CBP bromodomain (CBP-BD (1043-1159)); made in house; host or cells: E. coli BL21-CodonPlus (DE3), modified pET vector
Test: CBP Alphascreen binding assay
Conditions: read-out: CREBBP (CBP) IC50
How it was run: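 Buffer: 50 mM HEPES pH 7.5, 50 mM NaCl, 0.01% BSA, 0.01% Triton X-100, 2 mM DTT. The signal was normalised to plate controls and fitted with a four-parameter curve to give IC50.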

T1 sequence (Q92793 1081-1197): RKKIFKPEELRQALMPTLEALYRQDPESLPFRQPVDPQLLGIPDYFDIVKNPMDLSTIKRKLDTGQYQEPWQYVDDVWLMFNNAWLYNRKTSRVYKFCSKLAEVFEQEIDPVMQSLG

For CCOc1nc(C(=O)O)cc(C)c1-c1cn(C2CCOCC2)c2ncc(-c3c(C)noc3C)cc12 [P-0411, 5-(5-(3,5-dimethylisoxazol-4-yl)-1-(tetrahydro-2H-pyran-4-yl)-1H-pyrrolo[2,3-b]pyridin-3-yl)-6-ethoxy-4-methylpicolinic acid], which IC50 is on record?
Its IC50 is 0.1 to 1000 nM.

CCOc1cc(C(=O)O)nc(OCC)c1-c1cn(-c2ccccc2F)c2ncc(-c3c(C)noc3C)cc12 [P-0414, 5-(5-(3,5-dimethylisoxazol-4-yl)-1-(2-fluorophenyl)-1H-pyrrolo[2,3-b]pyridin-3-yl)-4,6-diethoxypicolinic acid] was tested. Which IC50 did it give?
Its IC50 is 0.1 to 1000 nM.

Cc1noc(C)c1-c1cnc2c(c1)c(-c1c(Cl)cc(C(=O)O)cc1OC(F)(F)F)cn2-c1ccc(C2CC2)nc1 [P-0441, 3-chloro-4-(1-(6-cyclopropylpyridin-3-yl)-5-(3,5-dimethylisoxazol-4-yl)-1H-pyrrolo[2,3-b]pyridin-3-yl)-5-(trifluoromethoxy)benzoic acid] was tested. Which IC50 did it give?
Its IC50 is 0.1 to 1000 nM.

With Cc1noc(C)c1-c1cnc2c(c1)c(-c1ccnc(C(=O)O)c1)cn2CC1CC1 [P-0045, 4-(1-(cyclopropylmethyl)-5-(3,5-dimethylisoxazol-4-yl)-1H-pyrrolo[2,3-b]pyridin-3-yl)picolinic acid] as the molecule, how does the IC50 read?
Its IC50 is 0.1 to 1000 nM.

For Cc1noc(C)c1-c1cnc2c(c1)c(-c1ccnc(C(=O)O)c1)cn2C(c1ccccn1)C1CCC1 (stereo not drawn) [P-0043, 4-(1-(cyclobutyl(pyridin-2-yl)methyl)-5-(3,5-dimethylisoxazol-4-yl)-1H-pyrrolo[2,3-b]pyridin-3-yl)picolinic acid], which IC50 is on record?
The IC50 was 0.1 to 1000 nM.

Cc1noc(C)c1-c1cnc2c(c1)c(-c1c(Cl)cc(C(=O)O)cc1OC(F)(F)F)cn2-c1ncccc1C#N [P-0395, 3-chloro-4-(1-(3-cyanopyridin-2-yl)-5-(3,5-dimethylisoxazol-4-yl)-1H-pyrrolo[2,3-b]pyridin-3-yl)-5-(trifluoromethoxy)benzoic acid] was tested. Which IC50 did it give?
The IC50 was 0.1 to 1000 nM.

With CCOc1cc(C(=O)O)nc(OCC)c1-c1cn(C(C2CC2)C2CC2)c2ncc(-c3c(C)noc3C)cc12 [P-0420, 5-(1-(dicyclopropylmethyl)-5-(3,5-dimethylisoxazol-4-yl)-1H-pyrrolo[2,3-b]pyridin-3-yl)-4,6-diethoxypicolinic acid] as the molecule, how does the IC50 read?
Its IC50 is 0.1 to 1000 nM.

For CCOc1cc(C(=O)O)c(F)cc1-c1cn(C2CCN(C(=O)OC(C)(C)C)CC2)c2ncc(-c3c(C)noc3C)cc12 [P-0442, 4-(1-(1-(tert-butoxycarbonyl)piperidin-4-yl)-5-(3,5-dimethylisoxazol-4-yl)-1H-pyrrolo[2,3-b]pyridin-3-yl)-5-ethoxy-2-fluorobenzoic acid], which IC50 is on record?
The IC50 was 0.1 to 1000 nM.

How did the IC50 turn out when Cc1noc(C)c1-c1cnc2c(c1)c(-c1cnn(CC(=O)O)c1)cn2C(c1ccccn1)C1CCCC1 (stereo not drawn) [P-0036, 2-(4-(1-(cyclopentyl(pyridin-2-yl)methyl)-5-(3,5-dimethylisoxazol-4-yl)-1H-pyrrolo[2,3-b]pyridin-3-yl)-1H-pyrazol-1-yl)acetic acid] was run?
Its IC50 is 0.1 to 1000 nM.

CCOc1nc(C(=O)O)cc(C)c1-c1cn(-c2ccc(F)cc2F)c2ncc(-c3c(C)noc3C)cc12 [P-0412, 5-(1-(2,4-difluorophenyl)-5-(3,5-dimethylisoxazol-4-yl)-1H-pyrrolo[2,3-b]pyridin-3-yl)-6-ethoxy-4-methylpicolinic acid] was tested. Which IC50 did it give?
Its IC50 is 0.1 to 1000 nM.

Which IC50 does the source give for CCOc1cc(C(=O)O)nc(OCC)c1-c1cn(C2CCN(S(C)(=O)=O)CC2)c2ncc(-c3c(C)noc3C)cc12 [P-0435, 5-(5-(3,5-dimethylisoxazol-4-yl)-1-(1-(methylsulfonyl)piperidin-4-yl)-1H-pyrrolo[2,3-b]pyridin-3-yl)-4,6-diethoxypicolinic acid] here?
Its IC50 is 0.1 to 1000 nM.

Cc1noc(C)c1-c1cnc2c(c1)c(-c1ccc(CC(=O)O)cc1)cn2-c1ccc(F)cc1F [P-0438, 2-(4-(1-(2,4-difluorophenyl)-5-(3,5-dimethylisoxazol-4-yl)-1H-pyrrolo[2,3-b]pyridin-3-yl)phenyl)acetic acid] was tested. Which IC50 did it give?
Its IC50 is 0.1 to 1000 nM.

How did the IC50 turn out when Cc1noc(C)c1-c1cnc2c(c1)c(-c1c(F)cc(C(=O)O)cc1OC1CC1)cn2C1CCOCC1 [P-0397, 3-cyclopropoxy-4-(5-(3,5-dimethylisoxazol-4-yl)-1-(tetrahydro-2H-pyran-4-yl)-1H-pyrrolo[2,3-b]pyridin-3-yl)-5-fluorobenzoic acid] was run?
Its IC50 is 0.1 to 1000 nM.

Cc1noc(C)c1-c1cnc2c(c1)c(C1CCC(C(=O)O)CC1)cn2-c1ccc(F)cc1F (stereo not drawn) [P-0434, 4-(1-(2,4-difluorophenyl)-5-(3,5-dimethylisoxazol-4-yl)-1H-pyrrolo[2,3-b]pyridin-3-yl)cyclohexane-1-carboxylic acid] was tested. Which IC50 did it give?
Its IC50 is 0.1 to 1000 nM.

With Cc1noc(C)c1-c1cnc2c(c1)c(-c1ccc(C(=O)O)cc1OC(C)C)cn2C1(C)CCOCC1 [P-0403, 4-(5-(3,5-dimethylisoxazol-4-yl)-1-(4-methyltetrahydro-2H-pyran-4-yl)-1H-pyrrolo[2,3-b]pyridin-3-yl)-3-isopropoxybenzoic acid] as the molecule, how does the IC50 read?
Its IC50 is 0.1 to 1000 nM.

Cc1noc(C)c1-c1cnc2c(c1)c(-c1ccnc(C(=O)O)c1)cn2C(C1CC1)C1CC1 [P-0041, 4-(1-(dicyclopropylmethyl)-5-(3,5-dimethylisoxazol-4-yl)-1H-pyrrolo[2,3-b]pyridin-3-yl)picolinic acid] was tested. Which IC50 did it give?
Its IC50 is 0.1 to 1000 nM.

For Cc1cc(C(=O)O)cc(OC(C)C)c1-c1cn(C2CCOCC2)c2ncc(-c3c(C)noc3C)cc12 [P-0402, 4-(5-(3,5-dimethylisoxazol-4-yl)-1-(tetrahydro-2H-pyran-4-yl)-1H-pyrrolo[2,3-b]pyridin-3-yl)-3-isopropoxy-5-methylbenzoic acid], which IC50 is on record?
The IC50 was 0.1 to 1000 nM.

CCOc1cc(C(=O)O)nc(OCC)c1-c1cn(-c2cn(C(F)F)nc2C)c2ncc(-c3c(C)noc3C)cc12 [P-0429, 5-(1-(1-(difluoromethyl)-3-methyl-1H-pyrazol-4-yl)-5-(3,5-dimethylisoxazol-4-yl)-1H-pyrrolo[2,3-b]pyridin-3-yl)-4,6-diethoxypicolinic acid] was tested. Which IC50 did it give?
Its IC50 is 0.1 to 1000 nM.

Cc1noc(C)c1-c1cnc2c(c1)c(-c1ccc(C(=O)O)cc1OC(C)C)cn2C1(C)CCOC1 (stereo not drawn) [P-0407, 4-(5-(3,5-dimethylisoxazol-4-yl)-1-(3-methyltetrahydrofuran-3-yl)-1H-pyrrolo[2,3-b]pyridin-3-yl)-3-isopropoxybenzoic acid] was tested. Which IC50 did it give?
The IC50 was 0.1 to 1000 nM.

How did the IC50 turn out when CCOc1cc(C(=O)O)nc(OCC)c1-n1cc(-c2ccc(F)cc2F)c2ncc(-c3c(C)noc3C)cc21 [P-0431, 5-(3-(2,4-difluorophenyl)-6-(3,5-dimethylisoxazol-4-yl)-1H-pyrrolo[3,2-b]pyridin-1-yl)-4,6-diethoxypicolinic acid] was run?
Its IC50 is 0.1 to 1000 nM.

Cc1noc(C)c1-c1cnc2c(c1)c(-c1c(F)cc(C(=O)O)cc1OC1CCC1)cn2C1CCOCC1 [P-0410, 3-cyclobutoxy-4-(5-(3,5-dimethylisoxazol-4-yl)-1-(tetrahydro-2H-pyran-4-yl)-1H-pyrrolo[2,3-b]pyridin-3-yl)-5-fluorobenzoic acid] was tested. Which IC50 did it give?
The IC50 was 0.1 to 1000 nM.

Cc1noc(C)c1-c1cnc2c(c1)c(-c1ccc(C(=O)O)cc1OC(F)(F)F)cn2-c1ccc(=O)n(C)c1 [P-0399, 4-(5-(3,5-dimethylisoxazol-4-yl)-1-(1-methyl-6-oxo-1,6-dihydropyridin-3-yl)-1H-pyrrolo[2,3-b]pyridin-3-yl)-3-(trifluoromethoxy)benzoic acid] was tested. Which IC50 did it give?
The IC50 was 0.1 to 1000 nM.

Cc1noc(C)c1-c1cnc2c(c1)c(-c1ccnc(C(=O)O)c1)cn2Cc1ccccn1 [P-0044, 4-(5-(3,5-dimethylisoxazol-4-yl)-1-(pyridin-2-ylmethyl)-1H-pyrrolo[2,3-b]pyridin-3-yl)picolinic acid] was tested. Which IC50 did it give?
The IC50 was 0.1 to 1000 nM.

How did the IC50 turn out when Cc1noc(C)c1-c1cnc2c(c1)c(-c1cnn(CC(C)(C)O)c1)cn2C(c1ccccn1)C1CCCC1 (stereo not drawn) [P-0037, 1-(4-(1-(cyclopentyl(pyridin-2-yl)methyl)-5-(3,5-dimethylisoxazol-4-yl)-1H-pyrrolo[2,3-b]pyridin-3-yl)-1H-pyrazol-1-yl)-2-methylpropan-2-ol] was run?
The IC50 was 1000 to 8000 nM.

Which IC50 does the source give for COc1ccc(CC(=O)O)cc1-c1cn(-c2ccc(F)cc2F)c2ncc(-c3c(C)noc3C)cc12 [P-0443, 2-(3-(1-(2,4-difluorophenyl)-5-(3,5-dimethylisoxazol-4-yl)-1H-pyrrolo[2,3-b]pyridin-3-yl)-4-methoxyphenyl)acetic acid] here?
Its IC50 is 0.1 to 1000 nM.

CCOc1cc(C(=O)O)c(F)cc1-c1cn(C2CCN(CCC#N)CC2)c2ncc(-c3c(C)noc3C)cc12 [P-0446, 4-(1-(1-(2-cyanoethyl)piperidin-4-yl)-5-(3,5-dimethylisoxazol-4-yl)-1H-pyrrolo[2,3-b]pyridin-3-yl)-5-ethoxy-2-fluorobenzoic acid] was tested. Which IC50 did it give?
Its IC50 is 0.1 to 1000 nM.

How did the IC50 turn out when COC(=O)c1cc(Cl)c(-c2cn(-c3ccc(C4CC4)nc3)c3ncc(-c4c(C)noc4C)cc23)c(OC(F)(F)F)c1 [P-0440, methyl 3-chloro-4-(1-(6-cyclopropylpyridin-3-yl)-5-(3,5-dimethylisoxazol-4-yl)-1H-pyrrolo[2,3-b]pyridin-3-yl)-5-(trifluoromethoxy)benzoate] was run?
Its IC50 is 1000 to 8000 nM.

Which IC50 does the source give for CCc1onc(C)c1-c1cnc2c(c1)c(-c1ccc(C(=O)O)cc1OC(F)(F)F)cn2C1CCOCC1 [P-0401, 4-(5-(5-ethyl-3-methylisoxazol-4-yl)-1-(tetrahydro-2H-pyran-4-yl)-1H-pyrrolo[2,3-b]pyridin-3-yl)-3-(trifluoromethoxy)benzoic acid] here?
Its IC50 is 0.1 to 1000 nM.

With Cc1noc(C)c1-c1cnc2c(c1)c(-c1cnn(C(C)(C)C(=O)O)c1)cn2C(c1ccccn1)C1CCCC1 (stereo not drawn) [P-0035, 2-(4-(1-(cyclopentyl(pyridin-2-yl)methyl)-5-(3,5-dimethylisoxazol-4-yl)-1H-pyrrolo[2,3-b]pyridin-3-yl)-1H-pyrazol-1-yl)-2-methylpropanoic acid] as the molecule, how does the IC50 read?
The IC50 was 0.1 to 1000 nM.

For Cc1noc(C)c1-c1cnc2c(c1)c(-c1cccc(C(=O)O)c1)cn2CC1CC1 [P-0050, 3-(1-(cyclopropylmethyl)-5-(3,5-dimethylisoxazol-4-yl)-1H-pyrrolo[2,3-b]pyridin-3-yl)benzoic acid], which IC50 is on record?
Its IC50 is 0.1 to 1000 nM.
